# In article PMC7356761 (Molecules, 2020):
# “Also recorded” adds a separate entry of the source.
# Assays:
# [1] = Biodistribution in tumor-bearing mice, normal tissues; type: in vivo, mouse
# Experimental: (§1) Male ddY mice (27–30 g, 6 weeks old) and female BALB/c nu/nu mice (12–17 g, 4 weeks old) were purchased from Japan SLC Inc. (Hamamatsu, Japan). The mice were housed in a cage with free access to food and water maintained at a constant temperature (23–25 °C) with a 12 h light/dark cycle. […] The tumor reached palpable size 2- and 3-weeks post-inoculation. Animal experiments were conducted in accordance with laboratory guidelines for the care and use of animals of Kanazawa University. The animal handling protocol was approved by the Kanazawa University Animal Care Committee (approval number: AP-163766). 3.10. Biodistribution Studies Mice were injected intravenously via the lateral tail vein with a saline solution of [^125I]10 (25 kBq, 100 μL) containing 1% tween-80 and 10% ethanol. The ddY mice were sacrificed at 10 min, 1, 4 and 24 h; meanwhile, the tumor-bearing mice were sacrificed at 1 and 4 h post injection. The selected tissues and organs were collected and weighed and their radioactivity was measured using an auto well gamma counter. […] The mice were sacrificed 1 h after the administration of radiotracer. The biodistribution data are expressed as percent injected dose per gram of tissue (% ID/g) along with the SD.
# H3255 tumor = test: Biodistribution in tumor-bearing mice, H3255 tumor; type: in vivo, mouse
# Experimental: as §1
# [2] = system: H3255 cells (L858R active mutant EGFR); test: Cellular uptake study, H3255; type: cell-based, human
# Experimental: (§2) 3.8. Cellular Uptake Studies
# (§3) Then, the cell culture was incubated in a serum-free medium containing [^125I]10 (3.7 kBq/well) for 4 h. The medium from each well was removed and the cells were washed with 1 mL of ice-cold PBS. Finally, all cell fractions were lysed twice with 0.5 mL of 1 M NaOH aqueous solution. The radioactivity of every fraction was determined by an auto well gamma counter. Total cell protein was determined using the Bicinchoninic Acid (BCA) Protein Assay Kit (Nacalai) protocol, which uses bovine serum albumin as a standard reference. […]. All data were expressed as percent dose per milligram of protein (% dose/mg protein) ± SD.
# [3] = system: H441 cells (wild-type EGFR); test: Cellular uptake study, H441; type: cell-based, human; conditions: H441, 4 h incubation
# Experimental: as §2, §3
# [4] = Partition coefficient, shake-flask n-octanol/phosphate buffer; type: physicochemical; conditions: n-octanol/0.1 M phosphate buffer pH 7.4, shake-flask
# Experimental: 3.6. Determination of Partition Coefficient
# The partition coefficient of [^125I]10 was measured, as previously reported with a slight modification. Briefly, [^125I]10 was added to the mixture of each 3 mL of n-octanol and 0.1 M phosphate buffer (pH 7.4) in a test tube. The test tube was vortexed for 1 min, left at room temperature for 10 min and centrifuged at 3000× g and 4 °C for 5 min. The n-octanol layer (2 mL) was transferred into a new test tube followed by adding 1 mL of new n-octanol and 3 mL of phosphate buffer. The radioactivity of each 1 mL layer, n-octanol and phosphate buffer was measured using an auto well gamma counter (n = 4). The log P value was calculated by the logarithm of the ratio of radioactivity per milliliter (cpm/mL) in n-octanol to that in phosphate buffer and represents mean ± SD.
# [5] = In vitro stability in PBS; type: physicochemical; conditions: 0.1 M PBS pH 7.4, 37 °C
# Experimental: (§4) 3.7. In Vitro Stability Experiments
# The in vitro stability of [^125I]10 was examined in phosphate buffered saline (PBS) and mouse plasma. Briefly, [^125I]10 solution (50 µL) in a sealed tube containing 0.1 M PBS pH 7.4 (450 µL) was incubated at 37 °C for 1 and 24 h. After incubation, the purities of radiotracers were analyzed by RP-HPLC with mobile phase system water (A) and methanol (B), B: 70–100%, 20 min using a Cosmosil® 5C18 MSII (4.6 ID × 150 mm) column, a flow rate 1 mL/min. The column temperature was kept at 40 °C.
# [6] = In vitro stability in murine plasma; type: in vitro ADME, mouse; conditions: 37 °C
# Experimental: as §4
# The plasma was prepared by centrifugation of murine blood at 4 °C for 20 min at […]. The reaction was started by the addition of [^125I]10 (20 μL) in the plasma (180 µL). The mixture was incubated in a shaker at 300 rpm at 37 °C, which was carried out three times. Samples (100 µL) were taken at 0, 1 and 24 h and 100 µL acetonitrile, divided into five portions, was added for deproteinization of the plasma. The samples were left in the fridge for 15 min and then centrifuged at 4 °C for 15 min at […]. The supernatant was filtered through a pore size of 0.45 μm, then analyzed by RP-HPLC with a mobile phase gradient system water (A) and methanol (B), B: 70–100%, for 20 min using a Cosmosil® 5C18 MSII (4.6 ID × 150 mm) column at a flow rate of 1 mL/min. The column temperature was maintained at 40 °C. Radioactivity was measured by an auto well gamma counter.
# [7] = Blocking (1 h), CO-1686 30 mg/kg i.p. 1 h prior
smiles,measurement,setting,value
C=CC(=O)Nc1cc([125I])cc(Nc2nc(Nc3ccc(N4CCN(C(C)=O)CC4)cc3OC)ncc2C(F)(F)F)c1 [[^125I]10],"Biodistribution, Blood",[1]; [7],1.79 (0.21) % ID/g tissue
same,"Biodistribution, Bone",[1]; [7],1.07 (0.36) % ID/g tissue
same,"Biodistribution, Brain",[1]; [7],0.10 (0.02) % ID/g tissue
same,"Biodistribution, Heart",[1]; [7],1.53 (0.58) % ID/g tissue
same,"Biodistribution, Kidney",[1]; [7],4.19 (1.28) % ID/g tissue
same,"Biodistribution, Large intestine",[1]; [7],8.96 (7.48) % ID/g tissue
same,"Biodistribution, Liver",[1]; [7],21.77 (2.83) % ID/g tissue
same,"Biodistribution, Lung",[1]; [7],3.40 (0.93) % ID/g tissue
same,"Biodistribution, Muscle",[1]; [7],1.09 (0.42) % ID/g tissue
same,"Biodistribution, Pancreas",[1]; [7],3.87 (0.87) % ID/g tissue
same,"Biodistribution, Small intestine",[1]; [7],60.68 (6.67) % ID/g tissue
same,"Biodistribution, Spleen",[1]; [7],2.81 (0.77) % ID/g tissue
same,"Biodistribution, Stomach",[1]; [7],1.44 (0.57) % ID/organ
same,"Biodistribution, Blood","[1]; i.v., 1 h",1.74 (0.18) % ID/g tissue
same,"Biodistribution, Bone","[1]; i.v., 1 h",0.50 (0.40) % ID/g tissue
same,"Biodistribution, Brain","[1]; i.v., 1 h",0.11 (0.08) % ID/g tissue
same,"Biodistribution, Heart","[1]; i.v., 1 h",1.46 (0.31) % ID/g tissue
same,"Biodistribution, Kidney","[1]; i.v., 1 h",5.26 (1.50) % ID/g tissue
same,"Biodistribution, Large intestine","[1]; i.v., 1 h",18.65 (19.88) % ID/g tissue
same,"Biodistribution, Liver","[1]; i.v., 1 h",28.12 (5.43) % ID/g tissue
same,"Biodistribution, Lung","[1]; i.v., 1 h",4.67 (0.85) % ID/g tissue
same,"Biodistribution, Muscle","[1]; i.v., 1 h",0.86 (0.21) % ID/g tissue
same,"Biodistribution, Pancreas","[1]; i.v., 1 h",1.99 (0.52) % ID/g tissue
same,"Biodistribution, Small intestine","[1]; i.v., 1 h",85.58 (7.68) % ID/g tissue
same,"Biodistribution, Spleen","[1]; i.v., 1 h",3.20 (0.62) % ID/g tissue
same,"Biodistribution, Stomach","[1]; i.v., 1 h",1.04 (0.36) % ID/organ
same,"Biodistribution, Blood","[1]; i.v., 4 h",0.77 (0.07) % ID/g tissue
same,"Biodistribution, Bone","[1]; i.v., 4 h",0.24 (0.20) % ID/g tissue
same,"Biodistribution, Brain","[1]; i.v., 4 h",0.04 (0.02) % ID/g tissue
same,"Biodistribution, Heart","[1]; i.v., 4 h",0.60 (0.67) % ID/g tissue
same,"Biodistribution, Kidney","[1]; i.v., 4 h",1.62 (0.26) % ID/g tissue
same,"Biodistribution, Large intestine","[1]; i.v., 4 h",144.21 (10.97) % ID/g tissue
same,"Biodistribution, Liver","[1]; i.v., 4 h",12.40 (1.06) % ID/g tissue
same,"Biodistribution, Lung","[1]; i.v., 4 h",1.02 (0.28) % ID/g tissue
same,"Biodistribution, Muscle","[1]; i.v., 4 h",0.27 (0.08) % ID/g tissue
same,"Biodistribution, Pancreas","[1]; i.v., 4 h",0.49 (0.12) % ID/g tissue
same,"Biodistribution, Small intestine","[1]; i.v., 4 h",9.82 (3.17) % ID/g tissue
same,"Biodistribution, Spleen","[1]; i.v., 4 h",0.71 (0.19) % ID/g tissue
same,"Biodistribution, Stomach","[1]; i.v., 4 h",0.48 (0.19) % ID/organ
same,"Biodistribution, H3255 tumor",H3255 tumor; [7],1.47 (0.71) % ID/g tissue
same,"Biodistribution, H3255 tumor","H3255 tumor; i.v., 1 h",1.63 (0.23) % ID/g tissue
same,"Biodistribution, H3255 tumor","H3255 tumor; i.v., 1 h, listed as [^125I]ICO1686",1.63 ± 0.23 % ID/g tissue
same,"Biodistribution, H3255 tumor","H3255 tumor; i.v., 4 h",0.70 (0.13) % ID/g tissue
same,cell uptake,"[2]; H3255, 4 h incubation",33.52 % dose/mg protein
same,reduction of accumulation by gefitinib,"[2]; H3255, gefitinib 100 µM",over 50%
same,cell uptake,[3],8.95 % dose/mg protein
same,logP,[4],1.84 ± 0.01
same,stability in PBS,[5]; 24 h incubation,purity decreased gradually
same,stability in PBS,[5]; until 1 h,slightly decomposed
same,stability in plasma,[6]; 24 h incubation,purity decreased gradually
same,stability in plasma,[6]; until 1 h,slightly decomposed; also recorded: hardly decomposed
